Experimental data reported in US20260027105A1, “COMPOUND MEDICINE COMPOSITION FOR TREATING GLAUCOMA AND USE OF SAME” (Shenyang Pharmaceutical University, priority 2022, published 2026).
Counter-ions that a name gives are not always drawn. Like-named read-outs stand apart in the source and are kept apart here.

What was measured:
[1] = Stability and compatibility of netarsudil dimesylate in boric acid-sodium borate buffer solution; assay type: physicochemical; conditions: commercially available doses mixed in boric acid-sodium borate buffer solution, pH 4.5 to 5.4
[2] = prescribing information and literature reports of Rhopress®, cited from earlier work

| Molecule | compatibility with netarsudil dimesylate (white precipitate) [1] | stability in boric acid-sodium borate buffer solution ([2]; pH higher than 5.4) | stability in boric acid-sodium borate buffer solution ([2]; pH lower than 5.4, commercially available dose) |
| --- | --- | --- | --- |
| CC(C)NCC(O)COc1ccc(CCOCC2CC2)cc1 (centres unmarked) [betaxolol hydrochloride] | incompatible | – | – |
| CC(C)(C)NCC(O)COc1cccc2c1CCC(=O)N2 (centres unmarked) [carteolol hydrochloride] | incompatible | – | – |
| Cl [hydrochloric acid] | incompatible | – | – |
| O=C(O)/C=C\C(=O)O [maleic acid] | incompatible | – | – |
| CC(=O)Oc1c(C)cc(OCC(O)CNC(C)C)c(C)c1C (centres unmarked) [metipranolol hydrochloride] | incompatible | – | – |
| CC(C)(C)NC[C@H](O)COc1nsnc1N1CCOCC1 [timolol maleate] | incompatible | – | – |
| netarsudil dimesylate | – | unstable and prone to generating precipitate | good in stability |
